Test results taken from patent US20220054513A1, “COMBINATION COMPOSITIONS COMPRISING A BETA-LACTAMASE INHIBITOR” (VenatoRx Pharmaceuticals, Inc., priority 2018, published 2022).
Where two headings read alike, the source gives them in different places.

Test system: β-lactamase expressing P. mirabilis
Assay: broth microdilution MIC of cefiderocol +/- Compound 1, P. mirabilis strain
Assay type: cell-based
Conditions: Proteus mirabilis, read-out: Minimum inhibitory concentration (MIC), P. mirabilis CDC-159 (NDM)

Question: How did the MIC (IDM) turn out when `CC(C)(O/N=C(\C(=O)N[C@@H]1C(=O)N2C(C(=O)[O-])=C(C[N+]3(CCNC(=O)c4ccc(O)c(O)c4Cl)CCCC3)CS[C@H]12)c1csc(N)n1)C(=O)O` [FDC, cefiderocol] was run?
Answer: 4 µg/mL

Question: And the MIC (MHBII)?
Answer: 32 µg/mL
